{"source": "patent US20080299587A1", "about": "“METHODS OF MEASURING INHIBITION OF PLATELET AGGREGATION BY THROMBIN RECEPTOR ANTAGONISTS” (priority 2007, published 2008)", "key": {"[1]": {"tested_on": "IL-6, CD40 ligand and P-selectin", "settings": "human cells; cited from earlier work"}, "[2]": {"settings": "rabbit subarachnoid hemorrhage model; cited from earlier work"}, "[3]": {"settings": "rat balloon injury model; cited from earlier work"}, "[4]": {"tested_on": "platelets in whole blood activated by PAR-1 thrombin receptor activating peptide (TRAP-1)", "settings": "expected level of inhibition provided, cited from earlier work"}, "[5]": {"tested_on": "platelets in whole blood activated by PAR-1 thrombin receptor activating peptide (TRAP-1)", "experiment": "VERIFYNOW IIb/IIIa Assay, dose-dependent platelet inhibition with TRAP-1 as platelet activator", "type": "cell-based, human", "settings": "TRAP-1 3.7 μM; for % Inhibition, Average: Average of four human donors; for % Inhibition (platelet inhibition relative to baseline): whole blood, 30 min 37°C", "text": "The VERIFYNOW™ System instrument is a turbidometric based optical detection system that measures platelet induced aggregation as an increase in light transmittance. The system includes an analyzer, disposable cartridge and controls. The cartridge contains reagents based on microparticle agglutination technology. The quality control system includes an electronic control, two levels of assayed “wet” controls (WQC), an in-cartridge humidity sensor, an in-packaging temperature indicator, and a test for concurrence of two assay channels. […] For use in the present methods the test cartridge of the system contains a lyophilized preparation comprising particles with passively bound GPIIb/IIIa receptor ligand, a thrombin receptor activator, and buffer. The patient sample is usually citrated whole blood, which is automatically dispensed from the blood collection tube into the cartridge by the analyzer, with no blood handling required by the user. The interaction is monitored by the infrared absorbency characteristics of the particles. As the particles interact with the platelets, the agglutination of the particles is measured through the optical system of the VERIFYNOW™ instrument. The agglutination is detected as an increase in the transmission of infrared light through the sample.\nAn experiment was conducted to determine dose-dependent platelet inhibition by the PAR-1 antagonist E5555 (Eisai Co., Ltd.) using the VERIFYNOW™ IIb/IIIa Assay (Accumetrics, Inc., San Diego, Calif.) and PAR-1 thrombin receptor activating peptide (TRAP-1) as the platelet activator.\nDose response testing was performed with TRAP-1 at 3.7 μM. E5555 was used at final concentrations of 30 ng/ml, 10 ng/ml, 5.0 ng/ml and 1.0 ng/ml. 20 μL of each stock solution was spiked into 2.0 ml of whole blood (1:100 dilution) and mixed carefully to prevent hemolysis. After mixing, the blood samples were incubated for 30 min at 37° C. prior to platelet inhibition test.\nBlood samples from four human donors were run in duplicate at baseline and for each of the four E5555 concentrations. As one might have expected, there was donor-to-donor variability in the levels of platelet inhibition measured at a given concentration of E5555. Based on the expected levels of inhibition at each concentration of E5555 provided, the actual results were on average slightly lower than expected across the four donors."}, "[6]": {"settings": "guinea pig thrombosis model; cited from earlier work"}, "platelet aggregation": {"tested_on": "platelet aggregation", "settings": "blood samples from patients undergoing non-urgent PCI; cited from earlier work"}, "[7]": {"settings": "Phase II clinical studies, treated patients; cited from earlier work"}, "PAR-1 thrombin receptor": {"biological_target": "T1, PAR-1 thrombin receptor (Homo sapiens, UniProt P25116)", "T1 sequence (P25116 22-425)": "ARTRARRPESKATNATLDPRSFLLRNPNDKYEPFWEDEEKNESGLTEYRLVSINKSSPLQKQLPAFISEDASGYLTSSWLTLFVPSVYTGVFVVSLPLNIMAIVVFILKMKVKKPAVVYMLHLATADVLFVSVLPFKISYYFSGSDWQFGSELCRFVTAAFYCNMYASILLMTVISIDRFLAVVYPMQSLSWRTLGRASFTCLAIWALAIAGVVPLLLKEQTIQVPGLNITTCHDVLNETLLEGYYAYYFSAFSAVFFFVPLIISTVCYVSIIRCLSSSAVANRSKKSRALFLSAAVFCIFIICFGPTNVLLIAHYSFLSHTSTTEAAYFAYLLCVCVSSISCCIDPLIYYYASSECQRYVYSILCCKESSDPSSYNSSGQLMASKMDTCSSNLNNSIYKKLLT", "settings": "cited from earlier work"}, "[8]": {"biological_target": "T2, platelet thrombin receptors (Homo sapiens, UniProt P25116)", "T2 construct": "host or cells: platelets", "T2 sequence (P25116 22-425)": "T1 sequence (P25116 22-425)", "settings": "receptors activated by either thrombin or TRAP-1; cited from earlier work"}}, "note": "Where two headings read alike, the source gives them in different places.", "data": [{"molecule": "CCOc1cc2c(c(F)c1OCC)C(=N)N(CC(=O)c1cc(N3CCOCC3)c(OC)c(C(C)(C)C)c1)C2", "note": "[E5555]", "values": [{"measurement": "effect on thrombin-induced release or expression of inflammatory markers (IL-6, CD40 ligand, P-selectin)", "setting": "[1]", "result": "inhibitory effects"}, {"measurement": "effect on thrombin-induced contractile response", "setting": "[2]", "result": "inhibitory effects"}, {"measurement": "effect on neointima hyperplasia", "setting": "[3]", "result": "inhibitory effects"}, {"measurement": "% Inhibition, Expected", "setting": "[4]; 1 ng/ml E5555", "result": "10-50%"}, {"measurement": "% Inhibition, Expected", "setting": "[4]; 5 ng/ml E5555", "result": "40-80%"}, {"measurement": "% Inhibition, Expected", "setting": "[4]; 10 ng/ml E5555", "result": "70-100%"}, {"measurement": "% Inhibition, Expected", "setting": "[4]; 30 ng/ml E5555", "result": 100, "unit": "%"}, {"measurement": "% Inhibition, Average", "setting": "[5]; 1 ng/ml E5555", "result": 5, "unit": "%"}, {"measurement": "% Inhibition, Average", "setting": "[5]; 5 ng/ml E5555", "result": 30, "unit": "%"}, {"measurement": "% Inhibition, Average", "setting": "[5]; 10 ng/ml E5555", "result": 57, "unit": "%"}, {"measurement": "% Inhibition, Average", "setting": "[5]; 30 ng/ml E5555", "result": 86, "unit": "%"}, {"measurement": "% Inhibition (platelet inhibition relative to baseline)", "setting": "[5]; Donor ID: 60, 1 ng/ml E5555", "result": 7, "unit": "%"}, {"measurement": "% Inhibition (platelet inhibition relative to baseline)", "setting": "[5]; Donor ID: 60, 5 ng/ml E5555", "result": 17, "unit": "%"}, {"measurement": "% Inhibition (platelet inhibition relative to baseline)", "setting": "[5]; Donor ID: 60, 10 ng/ml E5555", "result": 46, "unit": "%"}, {"measurement": "% Inhibition (platelet inhibition relative to baseline)", "setting": "[5]; Donor ID: 60, 30 ng/ml E5555", "result": 82, "unit": "%"}, {"measurement": "% Inhibition (platelet inhibition relative to baseline)", "setting": "[5]; Donor ID: 75, 1 ng/ml E5555", "result": "−1", "unit": "%"}, {"measurement": "% Inhibition (platelet inhibition relative to baseline)", "setting": "[5]; Donor ID: 75, 5 ng/ml E5555", "result": 15, "unit": "%"}, {"measurement": "% Inhibition (platelet inhibition relative to baseline)", "setting": "[5]; Donor ID: 75, 10 ng/ml E5555", "result": 39, "unit": "%"}, {"measurement": "% Inhibition (platelet inhibition relative to baseline)", "setting": "[5]; Donor ID: 75, 30 ng/ml E5555", "result": 78, "unit": "%"}, {"measurement": "% Inhibition (platelet inhibition relative to baseline)", "setting": "[5]; Donor ID: 126, 1 ng/ml E5555", "result": 5, "unit": "%"}, {"measurement": "% Inhibition (platelet inhibition relative to baseline)", "setting": "[5]; Donor ID: 126, 5 ng/ml E5555", "result": 51, "unit": "%"}, {"measurement": "% Inhibition (platelet inhibition relative to baseline)", "setting": "[5]; Donor ID: 126, 10 ng/ml E5555", "result": 77, "unit": "%"}, {"measurement": "% Inhibition (platelet inhibition relative to baseline)", "setting": "[5]; Donor ID: 126, 30 ng/ml E5555", "result": 97, "unit": "%"}, {"measurement": "% Inhibition (platelet inhibition relative to baseline)", "setting": "[5]; Donor ID: 137, 1 ng/ml E5555", "result": 7, "unit": "%"}, {"measurement": "% Inhibition (platelet inhibition relative to baseline)", "setting": "[5]; Donor ID: 137, 5 ng/ml E5555", "result": 35, "unit": "%"}, {"measurement": "% Inhibition (platelet inhibition relative to baseline)", "setting": "[5]; Donor ID: 137, 10 ng/ml E5555", "result": 66, "unit": "%"}, {"measurement": "% Inhibition (platelet inhibition relative to baseline)", "setting": "[5]; Donor ID: 137, 30 ng/ml E5555", "result": 88, "unit": "%"}, {"measurement": "anti-thrombotic effect", "setting": "[6]", "result": "anti-thrombotic effect"}]}, {"molecule": "CCOC(=O)N[C@@H]1CC[C@@H]2[C@@H](C1)C[C@H]1C(=O)O[C@H](C)[C@H]1[C@H]2/C=C/c1ccc(-c2cccc(F)c2)cn1", "note": "[SCH 530348]", "values": [{"measurement": "inhibition of platelet aggregation", "setting": "platelet aggregation", "result": "sustained, dose-dependent, specific agonist-induced inhibition of platelet aggregation"}, {"measurement": "bleeding time and coagulation times", "setting": "[7]", "result": "no increase in bleeding time or prolongation in coagulation times"}, {"measurement": "inhibition of the PAR-1 thrombin receptor", "setting": "PAR-1 thrombin receptor", "result": "potent inhibitor"}]}, {"molecule": "Phe-Leu-Leu-Arg-Asn (FLLRN; printed: Phe-Leu-Leu-Arg-Asn) [truncated TRAP-1 pentapeptide]", "values": [{"measurement": "antagonism of platelet thrombin receptors", "setting": "[8]", "result": "weak antagonist"}]}]}
